Reference: patent US7642239B2, “Inhibition of placenta growth factor (PLGF) mediated metastasis and/or angiogenesis” (Center for Molecular Medicine and Immunology, priority 2005, dated 2010)
Marks after values point to notes of the source that are not given here. Ends that are not written are not given here.

Assays:
[1] = system: microvessels in PlGF-containing Matrigel plugs; assay: Matrigel basement membrane plug angiogenesis assay; assay type: in vivo, nude mice; conditions: PlGF-containing implants ± BP1, s.c.; PBS controls 16.2±11.4
Excerpt: To further investigate the effect of PlGF binding peptides on endothelial cell migration and angiogenesis, Matrigel basement membrane plugs containing PlGF, BP1, BP2, or PBS were implanted s.c. on the flanks of nude mice. The number of interior microvessels in the PBS controls was 16.2±11.4/mm^2. PlGF-only implants contained 28.9±17.2/mm^2 (1.8-fold vs. mock-treated implants), and implants with PlGF and BP1 contained only 12.3±13.0 microvessels/mm^2 (P<0.02).

[2] = system: MDA-MB-231; assay: Wound-healing (motility) assay, MDA-MB-231; assay type: cell-based, human; conditions: for Relative activity: unit assumed; for Migrating cells: 18-24 h
Procedure: MCF-7, MDA-MB-23 1, and MDA-MB-468 breast tumor cell lines or HECs were seeded onto sterile glass coverslips in Petri dishes or six-well plates. When the cells were 70-80% confluent, the monolayers were scratched with a sterile plastic pipet tip.
Inhibitor concentrations were 50 μM PD98059 (PD98) (mitogen activated protein kinase-kinase 1 [MEK1] inhibitor), 5 nM Wortmannin (phosphatidyl inositol 3 kinase [PI3K] inhibitor), or human recombinant soluble Flt-1 (sFlt-1) (R&D Systems). […] Cells were pre-incubated with PD98 and Wortmannin for 15-30 min before addition of PlGF. Stained (Wright-Giemsa) and mounted coverslips were examined microscopically. Five to ten 100× fields were evaluated by counting the number of cells separated from the wound edges and which appeared to be migrating toward the center of the wound. Results are reported as the average number of cells migrating into the wound/100× field. In some cases data from separate experiments were combined to accommodate inclusion of various treatments in the tables.
Antibody concentration was 1 μg/ml. MEK1 inhibitor, PD98059 (PD98), 50 μM. PI3K inhibitor, Wortmannin, 5 nM. […] Values for antibody and inhibitor treatments were from separate experiments which included all relevant controls. […] UT denotes untreated controls. *P<0.01 (ANOVA) compared to UT; † P<0.02 (ANOVA) compared to PlGF only. ‡ P<0.001 (ANOVA) compared to PlGF only.

[3] = system: MDA-MB-231 mfp tumor; assay: Orthotopic mammary fat pad (mfp) MDA-MB-231 model; assay type: in vivo, SCID mice
Excerpt: MDA-MB-231, grown in tissue culture, was also implanted in the mammary fat pad (mfp) of SCID mice (3×10^6 cells, 4-5 mice/group). In this model, large pulmonary metastases are less likely to develop (Richert et al., Breast Cancer Res. 7:R819-27, 2005). Peptide treatment was commenced on day 5 after implantation, when small tumors were palpable in all mice (8 treatments). Three days after the final peptide treatment, tumors were removed and weighed. Lungs were harvested and examined microscopically for metastases, as described above.

[4] = system: MDA-MB-231; assay: Matrigel cell invasion assay, MDA-MB-231; assay type: cell-based, human
Procedure: (§1) Cellular invasion was determined by addition of 5×10^4cells to growth factor-reduced Matrigel invasion chambers (BD Biosciences Discovery Labware, Bedford, Mass.) (Taylor et al., 2003b; Passaniti et al., 1992, Lab Invest 67, 519-528). Additives to the Matrigel® plugs were pre-incubated together in a total volume of 100 μl PBS at RT for 10 min, after which each additive was added to the Matrigel. Growth factors (2.0 or 0.2 nM), peptide (2 μg/ml), or antibody (1 μg/ml) were added to cells in low serum (0.1% fetal bovine serum [FBS]) medium. Baseline and chemoattractant-based invasion (10% FBS) were included. The number of invading cells was determined by counting the number of cells on the bottom of the invasion chamber membrane after staining at 100× magnification after 24 h (MDA-MB-231) or 48 h (MCF-7, MDA-MB-468). The results of three to five separate experiments are presented.

[5] = system: PlGF-mediated angiogenesis in corneal tissues; assay: Mouse corneal micropocket angiogenesis assay; assay type: in vivo, C57B16/J mice; conditions: micropellets, 100 ng PlGF with 1 μM peptide, day 5
Procedure: The ability of PlGF ligands to block PlGF-mediated angiogenesis in corneal tissues in vivo is investigated. Corneal micropockets are created using a modified von Graefe cataract knife in both eyes of male 5-6-wk-old C57B16/J mice. Micropellets comprised of a sustained release formulation of polyglucuronic acid/polylactic acid containing 100 ng of PlGF or PlGF with 1 μM BP-1, BP-2, BP-3 or BP-4 are implanted into each corneal pocket. Eyes are examined by a slit-lamp biomicroscope on day 5 after pellet implantation. Vessel length and neovascularization are measured.

[6] = target: T1, VEGF165 (Homo sapiens, UniProt P15692); assay: Free peptide binding ELISA (FLAG epitope probe), VEGF-coated wells
T1 construct: purchased R&D Systems
T1 sequence (P15692 27-191 isoform P15692-4): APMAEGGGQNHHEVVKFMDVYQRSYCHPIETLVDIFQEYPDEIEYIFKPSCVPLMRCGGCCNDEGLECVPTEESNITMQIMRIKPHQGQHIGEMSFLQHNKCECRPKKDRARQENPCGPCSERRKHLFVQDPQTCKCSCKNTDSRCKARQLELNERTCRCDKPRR
Procedure: (§2) Competition assays were done with 2.5 or 25 U/ml heparin (Sigma, St. Louis, Mo.). BP1, 3, 4, and a scrambled version of BP3 (scrBP3) were synthesized with a linker followed by the FLAG epitope ([…] SEQ ID NO:5) at the C-terminus. Thirty minutes after addition of the first reagent, the second reagent was added, followed by another 30 minute incubation. Peptide binding was assessed by probing for the FLAG epitope (Prickett et al., Biotechniques 7:580-9, 1989; Castrucci et al., J. Virol. 66:4647-53, 1992). Absorbance was read at 490 nm.

[7] = system: MCF-7; assay: Matrigel cell invasion assay, MCF-7; assay type: cell-based, human; conditions: 48 h
Procedure: as §1

[8] = target: T2, PlGF (Homo sapiens, UniProt P49763); assay: Free peptide binding ELISA (FLAG epitope probe), PlGF-coated wells; conditions: peptide with C-terminal FLAG epitope
T2 construct: purchased R&D Systems
T2 sequence (P49763 19-170 isoform P49763-3 limits assumed): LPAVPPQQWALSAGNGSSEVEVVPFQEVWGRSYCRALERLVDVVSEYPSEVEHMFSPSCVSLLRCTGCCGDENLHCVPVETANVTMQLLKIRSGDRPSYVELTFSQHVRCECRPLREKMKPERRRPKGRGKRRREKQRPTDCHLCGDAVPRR
Procedure: as §2

binding to VEGF (in words) ([6]; ELISA-based binding assay): No measurable binding | binding to VEGF165 (A490) ([6]; peptide with C-terminal FLAG epitope): 0.299±0.174 | binding to PlGF (A490) [8]: 0.100±0.058
Sequence: SHRYRLAIQLHASDSSSSCV [BP1]
interior microvessels [1]: 12.3±13.0 /mm^2 | Relative activity ([2]; PlGF 2 nM ± test agent, relative to PlGF-only value): 32% | Relative activity ([2]; VEGF 2 nM ± test agent, relative to VEGF-only value): 132% | effect on PlGF-stimulated motility (in words) ([2]; antibody 1 μg/ml, peptide 2 μM): inhibited | Migrating cells ([2]; growth factor PlGF 2 nM ± test agent (Flt-1 2 nM, peptide 2 μM, antibody 1 μg/ml, PD98059 50 μM, Wortmannin 5 nM)): 13.6 ± 6.1† cells/100× field | Migrating cells ([2]; growth factor VEGF 2 nM ± test agent (peptide 2 μM, antibody 1 μg/ml)): 14.7 ± 2.1 cells/100× field | tumor weight ([3]; 8 peptide treatments, mock-treated 0.423±0.089): 0.345 ± 0.095 g | reduction in metastases ([3]; lung micrometastases): 82% | micrometastasis counts per mouse ([3]; lung, mock-treated 3.4±1.9): 0.6±0.5 | decrease in tumor weight ([3]; vs mock-treated, did not reach statistical significance): 23% | Average fold-change in the number of cells on the membrane compared to untreated controls ([4]; PlGF 0.2 nM ± peptide 2 μg/ml, 24 h): 1.3 ± 0.1 fold | invading cells, PlGF plus peptide ([4]; PlGF-stimulated invasion with added peptide, 24 h): 15±4.2 cells | decrease in PlGF-stimulated invasion ([4]; added peptide): 50% | Average fold-change in the number of cells on the membrane compared to untreated controls ([4]; peptide 2 μg/ml alone, 24 h): 1.0 ± 0.6 fold | effect on PlGF mediated angiogenesis in corneal tissues [5]: inhibits | Average fold-change in the number of cells on the membrane compared to untreated controls ([7]; PlGF 0.2 nM ± peptide 2 μg/ml): 0.3 ± 0.0 fold | Average fold-change in the number of cells on the membrane compared to untreated controls ([7]; peptide 2 μg/ml alone): 0.7 ± 0.4 fold
